In patent US20070049564A1 (Wyeth, priority 2005, published 2007):
In brackets after ≈: the same amount, converted by molar mass. Where two headings read alike, the source gives them in different places.

Columns and labels:
E. coli GC 2231 = assay: MIC, broth microdilution; conditions: Escherichia coli
E. coli GC 2232 = assay: MIC, broth microdilution; conditions: Escherichia coli
E. coli GC 2272 = assay: MIC, broth microdilution; conditions: Escherichia coli
E. coli GC 4560 = assay: MIC, broth microdilution; conditions: Escherichia coli
E. coli GC 6465 = assay: MIC, broth microdilution; conditions: Escherichia coli
E. coli GC 3226 = assay: MIC, broth microdilution; conditions: Escherichia coli
E. coli GC 2203 = assay: MIC, broth microdilution; conditions: Escherichia coli
S. typhimurium GC 2172 = assay: MIC, broth microdilution; conditions: Salmonella enterica, TYPHIMURIUM
Method: (§1) Antimicrobial susceptibility testing. The in vitro activities of the antibiotics are determined by the broth microdilution method as recommended by the National Committee for Clinical Laboratory Standards (NCCLS) (1). Mueller-Hinton II broth (MHBII)(BBL Cockeysville, Md.) is the medium employed in the testing procedures. Microtiter plates containing serial dilutions of each antimicrobial agent are inoculated with each organism to yield the appropriate density (10^5 CFU/ml) in a 100 μl final volume. The plates are incubated for 18-22 hours at 35° C. in ambient air.
Representative compounds were first incubated in mouse serum for an hour prior to the in vitro testing against a panel of selected gram-positive and gram-negative bacteria strains. All compounds were also pre-incubated in water for an hour prior to testing as control.

S. aureus GC 6466 = assay: MIC, broth microdilution; conditions: Staphylococcus aureus
S. aureus GC 6467 = assay: MIC, broth microdilution; conditions: Staphylococcus aureus
S. aureus GC 4536 = assay: MIC, broth microdilution; conditions: Staphylococcus aureus
S. aureus GC 6469 = assay: MIC, broth microdilution; conditions: Staphylococcus aureus
E. faecalis GC 4555 = assay: MIC, broth microdilution; conditions: Enterococcus faecalis
E. faecalis GC 2265 = assay: MIC, broth microdilution; conditions: Enterococcus faecalis
E. faecalis GC 2267 = assay: MIC, broth microdilution; conditions: Enterococcus faecalis
E. faecium GC 2243 = assay: MIC, broth microdilution; conditions: Enterococcus faecium
S. pneumoniae* GC 4465 = assay: MIC, broth microdilution; conditions: Streptococcus pneumoniae
Method: as §1
Representative compounds were first incubated in mouse serum for an hour prior to the in vitro testing against a panel of selected gram-positive and gram-negative bacteria strains. All compounds were also pre-incubated in water for an hour prior to testing as control. Representative compounds of Formula I were incubated in human serum prior to MIC determination.

S. agalactiae GC 4564 = assay: MIC, broth microdilution; conditions: Streptococcus agalactiae
E. coli = assay: Range of MIC for E. coli strains; conditions: Escherichia coli
Staph. = assay: Range of MIC for Staph. strains, including MRSA; conditions: Staphylococcus aureus

In the case of `CN(C)c1cc(NC(=O)CN(C(=O)OCOC(=O)CCC2CCCCC2)C(C)(C)C)c(O)c2c1C[C@H]1C[C@H]3[C@H](N(C)C)C(O)=C(C(N)=O)C(=O)[C@@]3(O)C(O)=C1C2=O` [Example 63, ({[(2-{[(5aR,6aS,7S,10aS)-9-(aminocarbonyl)-4,7-bis(dimethylamino)-1,8,10a,11-tetrahydroxy-10,12-dioxo-5,5a,6,6a,7,10,10a,12-octahydrotetracen-2-yl]amino}-2-oxoethyl)(tert-butyl)amino]carbonyl}oxy)methyl 3-cyclohexylpropanoate], the MIC (E. coli GC 2231; GC2231, pre-incubation in human serum) is reported as greater than 64 mg/L, the MIC (E. coli GC 2231; GC2231, pre-incubation in mouse serum) is reported as 1 mg/L (≈ 1.25 µM) and the MIC (E. coli GC 2231; GC2231, pre-incubation in water) is reported as greater than 64 mg/L. The MIC (E. coli GC 2232; GC2232, pre-incubation in human serum) was greater than 64 mg/L, the MIC (E. coli GC 2232; GC2232, pre-incubation in mouse serum) was 1 mg/L (≈ 1.25 µM) and the MIC (E. coli GC 2232; GC2232, pre-incubation in water) was greater than 64 mg/L. It also gave an MIC (E. coli GC 2272; GC2272, pre-incubation in human serum) greater than 64 mg/L, an MIC (E. coli GC 2272; GC2272, pre-incubation in mouse serum) of 1 mg/L (≈ 1.25 µM) and an MIC (E. coli GC 2272; GC2272, pre-incubation in water) greater than 64 mg/L. For the same molecule, the MIC (E. coli GC 4560; GC4560, pre-incubation in human serum) was 2 mg/L (≈ 2.51 µM), the MIC (E. coli GC 4560; GC4560, pre-incubation in mouse serum) was 0.5 mg/L (≈ 0.627 µM) and the MIC (E. coli GC 4560; GC4560, pre-incubation in water) was 16 mg/L (≈ 20.1 µM). For the same molecule, the MIC (E. coli GC 6465; GC6465, pre-incubation in human serum) was greater than 64 mg/L, the MIC (E. coli GC 6465; GC6465, pre-incubation in mouse serum) was 2 mg/L (≈ 2.51 µM) and the MIC (E. coli GC 6465; GC6465, pre-incubation in water) was greater than 64 mg/L. It also gave an MIC (E. coli GC 3226; GC3226, pre-incubation in human serum) greater than 64 mg/L, an MIC (E. coli GC 3226; GC3226, pre-incubation in mouse serum) of 1 mg/L (≈ 1.25 µM) and an MIC (E. coli GC 3226; GC3226, pre-incubation in water) greater than 64 mg/L. For the same molecule, the MIC (E. coli GC 2203; GC2203, pre-incubation in human serum) was greater than 64 mg/L, the MIC (E. coli GC 2203; GC2203, pre-incubation in mouse serum) was 1 mg/L (≈ 1.25 µM) and the MIC (E. coli GC 2203; GC2203, pre-incubation in water) was greater than 64 mg/L. It also gave an MIC (S. typhimurium GC 2172; pre-incubation in human serum) greater than 64 mg/L, an MIC (S. typhimurium GC 2172; pre-incubation in mouse serum) of 2 mg/L (≈ 2.51 µM) and an MIC (S. typhimurium GC 2172; pre-incubation in water) greater than 64 mg/L. The MIC (S. aureus GC 6466; GC6466, pre-incubation in human serum) was 1 mg/L (≈ 1.25 µM), the MIC (S. aureus GC 6466; GC6466, pre-incubation in mouse serum) was 0.5 mg/L (≈ 0.627 µM) and the MIC (S. aureus GC 6466; GC6466, pre-incubation in water) was 2 mg/L (≈ 2.51 µM). It also gave an MIC (S. aureus GC 6467; GC6467, pre-incubation in human serum) of 4 mg/L (≈ 5.01 µM), an MIC (S. aureus GC 6467; GC6467, pre-incubation in mouse serum) of 2 mg/L (≈ 2.51 µM) and an MIC (S. aureus GC 6467; GC6467, pre-incubation in water) of 16 mg/L (≈ 20.1 µM). It also gave an MIC (S. aureus GC 4536; GC4536, pre-incubation in human serum) of 1 mg/L (≈ 1.25 µM), an MIC (S. aureus GC 4536; GC4536, pre-incubation in mouse serum) of 1 mg/L (≈ 1.25 µM) and an MIC (S. aureus GC 4536; GC4536, pre-incubation in water) of 4 mg/L (≈ 5.01 µM). The MIC (S. aureus GC 6469; GC6469, pre-incubation in human serum) was 2 mg/L (≈ 2.51 µM), the MIC (S. aureus GC 6469; GC6469, pre-incubation in mouse serum) was 1 mg/L (≈ 1.25 µM) and the MIC (S. aureus GC 6469; GC6469, pre-incubation in water) was 16 mg/L (≈ 20.1 µM). For the same molecule, the MIC (E. faecalis GC 4555; GC4555, pre-incubation in human serum) was 2 mg/L (≈ 2.51 µM), the MIC (E. faecalis GC 4555; GC4555, pre-incubation in mouse serum) was 1 mg/L (≈ 1.25 µM) and the MIC (E. faecalis GC 4555; GC4555, pre-incubation in water) was 4 mg/L (≈ 5.01 µM). It also gave an MIC (E. faecalis GC 2265; GC2265, pre-incubation in human serum) of 2 mg/L (≈ 2.51 µM), an MIC (E. faecalis GC 2265; GC2265, pre-incubation in mouse serum) of 1 mg/L (≈ 1.25 µM) and an MIC (E. faecalis GC 2265; GC2265, pre-incubation in water) of 8 mg/L (≈ 10 µM). It also gave an MIC (E. faecalis GC 2267; GC2267, pre-incubation in human serum) of 2 mg/L (≈ 2.51 µM), an MIC (E. faecalis GC 2267; GC2267, pre-incubation in mouse serum) of 1 mg/L (≈ 1.25 µM) and an MIC (E. faecalis GC 2267; GC2267, pre-incubation in water) of 16 mg/L (≈ 20.1 µM). The MIC (E. faecium GC 2243; GC2243, pre-incubation in human serum) was 0.25 mg/L (≈ 0.313 µM), the MIC (E. faecium GC 2243; GC2243, pre-incubation in mouse serum) was 0.25 mg/L (≈ 0.313 µM) and the MIC (E. faecium GC 2243; GC2243, pre-incubation in water) was 0.5 mg/L (≈ 0.627 µM). The MIC (S. pneumoniae* GC 4465; pre-incubation in human serum) was 0.12 mg/L (≈ 0.15 µM), the MIC (S. pneumoniae* GC 4465; pre-incubation in mouse serum) was 0.12 mg/L (≈ 0.15 µM) and the MIC (S. pneumoniae* GC 4465; pre-incubation in water) was 0.12 mg/L (≈ 0.15 µM). For the same molecule, the MIC (S. agalactiae GC 4564; GC4564, pre-incubation in human serum) was 0.25 mg/L (≈ 0.313 µM), the MIC (S. agalactiae GC 4564; GC4564, pre-incubation in mouse serum) was 0.25 mg/L (≈ 0.313 µM) and the MIC (S. agalactiae GC 4564; GC4564, pre-incubation in water) was 0.25 mg/L (≈ 0.313 µM). It also gave an MIC (E. coli; 20 h, read-out: Range of MIC, E. coli (Mouse Serum)) of 0.5 to 2 mg/L (≈ 0.627 to 2.51 µM), an MIC (E. coli; read-out: Minimum inhibitory concentration (MIC), E. coli (water)) greater than 64 mg/L and an MIC (E. coli; read-out: Range of MIC, E. coli (Water)) greater than 64 mg/L. The MIC (Staph.; MRSA, read-out: Range of MIC, Staph (Mouse Serum)) was 0.5 to 2 mg/L (≈ 0.627 to 2.51 µM), the MIC (Staph.; MRSA, read-out: Range of MIC, Staph (Water)) was 2 to 16 mg/L (≈ 2.51 to 20.1 µM) and the MIC (Staph.; read-out: Minimum inhibitory concentration (MIC), Staph (Human Serum)) was 1 to 4 mg/L (≈ 1.25 to 5.01 µM). It also gave an MIC (Staph.; read-out: Minimum inhibitory concentration (MIC), Staph (Water)) of 2 to 16 mg/L (≈ 2.51 to 20.1 µM).
